Experimental data: patent publication US6413974B1, “6,9,-disubstituted 2-[trans-(4-aminocyclohexyl) amino] purines” (Aventis Pharmaceuticals Inc., priority 1998, dated 2002)
Values joined by “and” are separate entries in the source; they are usually repeats but may differ in a detail not shown here. Identical values can stand only once. Counter-ions that a name gives are not always drawn. Like-named read-outs stand apart in the source and are kept apart here.

Columns and labels:
[1] = system: PC-3; assay: In vitro tumor cell proliferation, PC-3; type: cell-based, human; conditions: read-out: In vitro Tumor Cell Proliferation (IC50, μM) Prostate PC-3
Summary of the method: (§1)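 Cells seeded overnight at 37° C, then exposed to drug 3 days, medium and drug renewed, plus 4 more days; TCA-fixed and sulforhodamine B stained. Alternatively CyQUANT read-out after 3 days' drug exposure, plates frozen at −80° C.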

[2] = system: MDA-MB-231; assay: In vitro tumor cell proliferation, MDA-MB-231; type: cell-based, human; conditions: read-out: In vitro Tumor Cell Proliferation (IC50, μM) Breast MDA-MB-231
Summary of the method: as §1

[3] = system: HT-29; assay: In vitro tumor cell proliferation, HT-29; type: cell-based, human; conditions: read-out: In vitro Tumor Cell Proliferation (IC50, μM) Colon HT-29 (converted)
Summary of the method: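 HT-29 human colon adenocarcinoma cells plated overnight at 37° C., then exposed to drug for 3 days, medium with fresh drug replaced for a further 4 days. Cells fixed with 10% TCA and stained with 0.4% sulforhodamine B; alternatively, CyQUANT read after 3 days of drug exposure.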

[4] = system: DU 145; assay: In vitro tumor cell proliferation, DU 145; type: cell-based, human; conditions: read-out: In vitro Tumor Cell Proliferation (IC50, μM) Prostate DUI45
Summary of the method: as §1

[5] = system: DMS-114; assay: In vitro tumor cell proliferation, DMS-114; type: cell-based, human; conditions: read-out: In vitro Tumor Cell Proliferation (IC50, μM) Lung DMS-114
Summary of the method: as §1

[6] = system: MCF-7; assay: In vitro tumor cell proliferation, MCF-7; type: cell-based, human; conditions: read-out: In vitro Tumor Cell Proliferation (IC50, μM) Breast MCF-7
Procedure: (§2) The proliferation of tumor cells was measured using a sulforhodamine B assay as described in Skehan, P., et al., J. Natl. Cancer Inst. […] Tumor cells were harvested with trypsin-EDTA, cells that excluded trypan blue were counted, added to 96-well plates and incubated overnight at 37° C. Drug was added to the wells following dilution in culture medium. Three days later, the medium was removed and replenished with medium containing fresh drug and incubated an additional 4 days. The cells were then fixed with 0.1 ml 10% trichloroacetic acid for 60 min at 4° C. The plates were rinsed five times with tap water, air-dried and stained for 30 min with 0.4% sulforhodamine B in 1% acetic acid and air-dried.
(§3) Alternatively, the CyQUANT cell proliferation assay was used to quantify tumor cell proliferation. Tumor cells were harvested with trypsin-EDTA, cells that excluded trypan blue were counted, added to 96-well plates and incubated overnight at 37° C. Drug was added to the wells following dilution in culture medium. Three days later the medium was removed and the plates frozen at −80° C. for at least 30 minutes.
MCF7 is a human breast adenocarcinoma, hormone-dependent (HTB 22);

[7] = system: HCT-15; assay: In vitro tumor cell proliferation, HCT-15; type: cell-based, human; conditions: read-out: In vitro Tumor Cell Proliferation (IC50, μM) Colon HCT-15
Procedure: as §2, §3

[8] = system: A549; assay: In vitro tumor cell proliferation, A549; type: cell-based, human; conditions: read-out: In vitro Tumor Cell Proliferation (IC50, μM) Lung A549
Summary of the method: as §1

[9] = target: T1, cdk2/cyclin E (Homo sapiens, UniProt P24941); assay: Cyclin-Dependent Kinase 2 Assay (cdk-2 inhibition); type: biochemical; conditions: GST-Rb substrate, 30 min at 30° C.
T1 construct: made in house; host or cells: insect cells (baculovirus co-infection)
Summary of the method: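 GST-Rb bound to glutathione-Sepharose beads (0.5 μg/well) as substrate in 50 mM HEPES pH 7.5, 10 mM MgCl2, 1 mM EGTA. Recombinant cdk2/cyclin E at 0.1 μg per 100 μl, 30 min at 30 °C. Reaction stopped by filtration, TNEN washes, scintillation counting.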

[10] = target: T2, cdk4/cyclin D1 (Homo sapiens, UniProt P11802); assay: Cyclin-dependent kinase 4 Assay; type: biochemical; conditions: cdk4/cyclin D1, GST-Rb substrate, 10 μM ATP, 30 min at 37° C.; read-out: CDK4 Inhibition IC50
T2 construct: made in house; host or cells: Sf9 insect cells (Bac-to-Bac baculovirus, pFastBac)
T2 sequence (P11802 whole entry): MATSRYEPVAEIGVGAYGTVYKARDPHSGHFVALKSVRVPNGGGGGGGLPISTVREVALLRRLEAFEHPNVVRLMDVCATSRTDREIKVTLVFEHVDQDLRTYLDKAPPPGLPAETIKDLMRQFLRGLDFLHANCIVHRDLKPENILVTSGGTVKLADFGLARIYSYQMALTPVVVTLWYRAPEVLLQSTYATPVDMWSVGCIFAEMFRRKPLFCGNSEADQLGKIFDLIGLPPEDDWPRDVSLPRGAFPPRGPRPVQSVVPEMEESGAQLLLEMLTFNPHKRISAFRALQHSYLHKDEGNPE
T2 sequence (P24385 whole entry partner): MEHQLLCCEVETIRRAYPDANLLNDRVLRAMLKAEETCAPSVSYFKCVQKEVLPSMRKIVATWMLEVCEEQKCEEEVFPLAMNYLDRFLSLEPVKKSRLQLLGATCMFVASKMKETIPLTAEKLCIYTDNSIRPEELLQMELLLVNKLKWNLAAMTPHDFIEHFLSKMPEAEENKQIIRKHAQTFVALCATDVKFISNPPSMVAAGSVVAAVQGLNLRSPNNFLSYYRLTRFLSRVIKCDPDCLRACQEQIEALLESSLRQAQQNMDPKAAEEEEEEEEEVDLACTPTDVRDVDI
Summary of the method: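 Insect-cell lysate of coexpressed human cdk4/cyclin D1 (0.1 μg) phosphorylated bead-bound GST-Rb (0.5 μg) in 50 mM HEPES pH 7.5, 10 mM MgCl2, 1 mM EGTA for 30 min at 37 °C. Filters were washed with TNEN and scintillation-counted; IC50 values derived.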

[11] = Homo sapiens, PC-3, values without *
[12] = values without *, dihydrochloride
[13] = Homo sapiens, MDA-MB-231, values without *
[14] = Homo sapiens, HT-29, values without *
[15] = Homo sapiens, DU-145, values without *
[16] = Homo sapiens, DMS-114, values without *
[17] = Homo sapiens, HCT-15, values without *
[18] = Homo sapiens, A549, values without *

Compound | IC50 [1, 11] [µM] | IC50 [1, 12] [µM] | IC50 [2, 13] [µM] | IC50 [2, 12] [µM] | IC50 [3, 14] [µM] | IC50 [3, 12] [µM] | IC50 [4, 15] [µM] | IC50 [4, 12] [µM] | IC50 [5, 16] [µM] | IC50 [5, 12] [µM] | IC50 ([6]; Homo sapiens, MCF7, values without *) [µM] | IC50 [6, 12] [µM] | IC50 [7, 17] [µM] | IC50 [7, 12] [µM] | IC50 [8, 18] [µM] | IC50 [8, 12] [µM] | IC50 [9] [µM] | IC50 [10]
N[C@H]1CC[C@H](Nc2nc(NCC3CCCCO3)c3ncn(C4CCCC4)c3n2)CC1 (relative stereo) [Example 30, 2-[Trans-(4-aminocyclohexyl)amino]-6-[(2-tetrahydropyranyl)methylamino]-9-cyclopentylpurine dihydrochloride] | 1.9 | 2.3 | 6.4 | 8.6 | 5.3 | 7.9 | 3.3 | 4 | 2.9 | 3.7 | 2.5 | 3.1 | 21 | 22 | 2.5 | 3.1 | 0.126 | 0.6 µM
Cc1cccc(CNc2nc(N[C@H]3CC[C@H](N)CC3)nc3c2ncn3C2CCCC2)c1 [Example 11, 2-[Trans-(4-aminocyclohexyl)amino]-6-[(3-methylbenzyl)amino]-9-cyclopentylpurine dihydrochloride] | 5.8 | 4.2 | 7.4 |  | 8.2 | 11 | 4.8 | 8 | 4.5 | 7.1 |  |  | 11 |  |  |  | 0.15 | 11 µM and 7.4 µM
N[C@H]1CC[C@H](Nc2nc(NCC3CCCCC3)c3ncn(C4CCCC4)c3n2)CC1 [Example 22, 2-[Trans-(4-aminocyclohexyl)amino]-6-[(cyclohexyl)methylamino]-9-cyclopentylpurine dihydrochloride] |  |  | 8.6 |  | 16 | 12 | 7.5 | 11 | 9 |  |  |  | 17 | 15 | 8 |  | 0.52 | 24 µM and 63 µM
N[C@H]1CC[C@H](Nc2nc(NCc3ccc(Cl)cc3)c3ncn(C4CCCC4)c3n2)CC1 [Example 27, 2-[Trans-(4-aminocyclohexyl)amino]-6-[(4-chlorobenzyl)amino]-9-cyclopentylpurine dihydrochloride] | 8.7 |  | 7 |  | 16 |  | 7.2 | 11 | 9.5 | 6.8 |  |  |  | 15 | 8.4 | 11 | 0.44 | 17 µM and 9 µM
N[C@H]1CC[C@H](Nc2nc(NCc3cccc(Cl)c3)c3ncn(C4CCCC4)c3n2)CC1 [Example 29, 2-[Trans-(4-aminocyclohexyl)amino]-6-[(3-chlorobenzyl)amino]-9-cyclopentylpurine dihydrochloride] |  |  | 1.1 | 1.6 | 2.4 | 1.5 | 0.8 | 0.92 | 0.52 | 0.63 |  |  | 3.8 | 2.9 | 0.92 | 1.3 | 0.032 | 0.53 µM
